These results are taken from patent US7268152B2, “Glucocorticoid mimetics, methods of making them, pharmaceutical compositions, and uses thereof” (Boehringer Ingelheim Pharmaceuticals, Inc., priority 2002, dated 2007).

In the test the target is T1, human glucocorticoid receptor (GR) complex (Homo sapiens, UniProt P04150).
T1 construct: made in house; host or cells: insect expression system (baculovirus lysate)
T1 sequence (P04150 1-777): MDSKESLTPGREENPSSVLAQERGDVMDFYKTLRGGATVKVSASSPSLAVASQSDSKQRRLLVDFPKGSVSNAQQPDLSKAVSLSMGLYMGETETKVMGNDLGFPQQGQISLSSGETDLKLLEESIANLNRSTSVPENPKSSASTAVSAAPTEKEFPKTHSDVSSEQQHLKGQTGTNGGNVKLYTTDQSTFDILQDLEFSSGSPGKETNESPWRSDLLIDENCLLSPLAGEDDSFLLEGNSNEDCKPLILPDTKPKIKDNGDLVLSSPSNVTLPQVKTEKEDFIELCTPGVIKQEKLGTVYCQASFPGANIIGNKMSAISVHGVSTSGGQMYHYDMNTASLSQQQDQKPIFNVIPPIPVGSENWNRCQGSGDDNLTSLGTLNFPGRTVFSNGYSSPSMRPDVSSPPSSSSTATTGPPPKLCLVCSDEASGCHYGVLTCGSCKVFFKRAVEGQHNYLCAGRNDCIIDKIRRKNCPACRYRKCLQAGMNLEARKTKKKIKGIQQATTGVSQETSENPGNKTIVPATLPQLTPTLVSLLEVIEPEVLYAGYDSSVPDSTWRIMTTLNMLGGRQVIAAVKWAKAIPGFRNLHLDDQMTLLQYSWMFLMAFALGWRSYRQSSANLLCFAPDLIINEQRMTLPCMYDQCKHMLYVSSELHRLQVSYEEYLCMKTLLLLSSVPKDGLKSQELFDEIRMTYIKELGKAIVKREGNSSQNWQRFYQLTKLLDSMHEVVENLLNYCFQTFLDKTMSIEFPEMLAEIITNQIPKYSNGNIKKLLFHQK
Description: Glucocorticoid receptor competitive binding assay (fluorescence polarization). Conditions: competition with TAMRA-labeled dexamethasone. As to the method: Compounds of the invention were evaluated for binding to the steroid receptor by a fluorescence polarization competitive binding assay. Detailed descriptions for preparation of recombinant glucocorticoid receptor (GR) complex used in the assay is described in U.S. provisional application No. 60/291,877, filed May 18, 2001, and incorporated herein by reference in its entirety. Preparation of the tetramethyl rhodamine (TAMRA)-labeled dexamethasone probe was accomplished using a standard literature procedure (M. Pons et al., J. Steroid Biochem., 1985, 22, pp. 267-273).
A. Glucocorticoid Receptor Competitive Binding Assay
Step 1. Characterization of the Fluorescent Probe
The wavelengths for maximum excitation and emission of the fluorescent probe should first be measured. An example of such a probe is rhodamine (TAMRA)-labeled dexamethasone.
The affinity of the probe for the steroid receptor was then determined in a titration experiment. The fluorescence polarization value of the probe in assay buffer was measured on an SLM-8100 fluorometer using the excitation and emission maximum values described above. Aliquots of expression vector lysate were added and fluorescence polarization was measured after each addition until no further change in polarization value was observed. Non-linear least squares regression analysis was used to calculate the dissociation constant of the probe from the polarization values obtained for lysate binding to the probe.
Step 2. Screeningfor Inhibitors of Probe Binding
This assay uses fluorescence polarization (FP) to quantitate the ability of test compounds to compete with tetramethyl rhodamine (TAMRA)-labeled dexamethasone for binding to a human glucocorticoid receptor (GR) complex prepared from an insect expression system. The assay buffer was: 10 mM TES, 50 mM KCl, 20 mM Na2MoO4.2H2O, 1.5 mM EDTA, 0.04% w/v CHAPS, 10% v/v glycerol, 1 mM dithiothreitol, pH 7.4. Test compounds were dissolved to 1 mM in neat DMSO and then further diluted to 10×assay concentration in assay buffer supplemented with 10% v/v DMSO. Test compounds were serially diluted at 10×assay concentrations in 10% DMSO-containing buffer in 96-well polypropylene plates. Binding reaction mixtures were prepared in 96-well black Dynex microtiter plates by sequential addition of the following assay components to each well: […] of 10×test compound solution, 85 μL of GR-containing baculovirus lysate diluted 1:170 in assay buffer, and 50 μL of 15 nM TAMRA-labeled dexamethasone. Positive controls were reaction mixtures containing no test compound; negative controls (blanks) were reaction mixtures containing 0.7 μM to 2 μM dexamethasone. The binding reactions were incubated for 1 hour at room temperature and then read for fluorescence polarization in the LJL Analyst set to 550 nm excitation and 580 nm emission, with the Rhodamine 561 dichroic mirror installed. IC50 values were determined by iterative non-linear curve fitting of the FP signal data to a 4-parameter logistic equation.

By IC50 is commonly meant the concentration at which inhibition is half-maximal. A high value points to weaker potency. Take `CCOc1ccc(F)cc1C(C)(C)CC(O)(Cc1cc(C(F)(F)F)cc(Cl)c1F)C(F)(F)F` (centres unmarked) [2-(3-Chloro-2-fluoro-5-trifluoromethylbenzyl)-4-(2-ethoxy-5-fluorophenyl)-1,1,1-trifluoro-4-methylpentan-2-ol]: the IC50 is not above 100 nM.

Take `COc1ccc(F)cc1C(C)(C)CC(O)(Cc1cc(Cl)cc(Cl)c1Cl)C(F)(F)F` (centres unmarked): the IC50 is not above 100 nM.

Take `COc1ccc(F)cc1C(C)(C)CC(O)(Cc1cc(Cl)ccc1F)C(F)(F)F` (centres unmarked) [2-(5-Chloro-2-fluorobenzyl)-1,1,1-trifluoro-4-(5-fluoro-2-methoxyphenyl)-4-methylpentan-2-ol]: the IC50 is not above 100 nM.

`COc1ccc(F)cc1C(C)(C)CC(O)(C(O)c1cc(C)cc(C)c1)C(F)(F)F` (centres unmarked) [1-(3,5-Dimethylphenyl)-4-(5-fluoro-2-methoxyphenyl)-4-methyl-2-trifluoromethylpentane-1,2-diol] came in with an IC50 not above 100 nM.

Take `CC(C)(CC(O)(Cc1cc(C(F)(F)F)cc(Cl)c1F)C(F)(F)F)c1cccc(Cl)c1` (centres unmarked) [2-(3-Chloro-2-fluoro-5-trifluoromethylbenzyl)-4-(3-chlorophenyl)-1,1,1-trifluoro-4-methylpentan-2-ol]: the IC50 is not above 100 nM.

`COc1ccc(F)cc1C(C)(C)CC(O)(Cc1cc(F)cc(C(F)(F)F)c1)C(F)(F)F` (centres unmarked) [1,1,1-Trifluoro-4-(5-fluoro-2-methoxyphenyl)-2-(3-fluoro-5-trifluoromethylbenzyl)-4-methylpentan-2-ol] gave an IC50 not above 100 nM.

As for `COc1ccc(F)cc1C(C)(C)CC(O)(Cc1ccc(C=O)cc1)C(F)(F)F` (centres unmarked), the IC50 is not above 100 nM.

`CC(C)(CC(O)(Cc1cc(F)c(F)c(F)c1)C(F)(F)F)c1cc(F)ccc1O` (centres unmarked) [4-Fluoro-2-[4,4,4-trifluoro-3-hydroxy-1,1-dimethyl-3-(3,4,5-trifluorobenzyl)butyl]phenol]: the IC50 is not above 100 nM.

For `CC(C)(CC(O)(Cc1cc(F)cc(F)c1)C(F)(F)F)c1cc(F)ccc1O` (centres unmarked) [2-[3-(3,5-Difluorobenzyl)-4,4,4-trifluoro-3-hydroxy-1,1-dimethylbutyl]-4-fluorophenol], the IC50 is not above 100 nM.

`COc1ccc(F)cc1C(C)(C)CC(O)(C(=O)Cc1cc(C)cc(C)c1)C(F)(F)F` (centres unmarked) [1-(3,5-Dimethylphenyl)-5-(5-fluoro-2-methoxyphenyl)-3-hydroxy-5-methyl-3-trifluoromethylhexan-2-one] came in with an IC50 not above 100 nM.

`COc1ccc(F)cc1C(C)(C)CC(O)(Cc1cccc(Cl)c1F)C(F)(F)F` (centres unmarked) [2-(3-Chloro-2-fluorobenzyl)-1,1,1-trifluoro-4-(5-fluoro-2-methoxyphenyl)-4-methylpentan-2ol] showed an IC50 not above 100 nM.

`Cc1cccc(CC(O)(CC(C)(C)c2cc(F)ccc2O)C(F)(F)F)c1` (centres unmarked) [4-Fluoro-2-[4,4,4-trifluoro-3-hydroxy-1,1-dimethyl-3-(3-methylbenzyl)butyl]phenol]: the IC50 was not above 100 nM.

As for `COc1ccc(F)cc1C(C)(C)CC(O)(Cc1ccccc1Cl)C(F)(F)F` (centres unmarked) [2-(2-Chlorobenzyl)-1,1,1-trifluoro-4-(5-fluoro-2-methoxyphenyl)-4-methylpentan-2-ol], the IC50 is not above 100 nM.

The molecule `Cc1ccc(F)cc1C(C)(C)CC(O)(Cc1ccc(Cl)c(Cl)c1)C(F)(F)F` (centres unmarked) [2-(3,4-Dichlorobenzyl)-1,1,1-trifluoro-4-(5-fluoro-2-methylphenyl)-4-methylpentan-2-ol] returned an IC50 not above 100 nM.

In turn, `COc1ccc(F)cc1C(C)(C)CC(O)(Cc1cc(Cl)cc(C#N)c1)C(F)(F)F` (centres unmarked) [3-Chloro-5-[4-(5-fluoro-2-methoxyphenyl)-2-hydroxy-4-methyl-2-trifluoromethylpentyl]benzonitrile] displayed an IC50 not above 100 nM.

Regarding `COc1ccc(F)cc1C(C)(C)CC(O)(Cc1ccc(C(F)(F)F)c(F)c1)C(F)(F)F` (centres unmarked), the IC50 is not above 100 nM.

The molecule `Cc1ccccc1CC(O)(CC(C)(C)c1cc(F)ccc1O)C(F)(F)F` (centres unmarked) [4-Fluoro-2-[4,4,4-trifluoro-3-hydroxy-1,1-dimethyl-3-(2-methylbenzyl)butyl]phenol] gave an IC50 not above 100 nM.
